Measurements as given in publication PMC5789083, “Mechanisms driving the antibacterial and antibiofilm properties of Hp1404 and its analogue peptides against multidrug-resistant Pseudomonas aeruginosa” (Scientific Reports, 2018).
Where no end group is shown, it is not given here.

system: HaCaT cells; assay: Cytotoxicity, MTT assay; type: cell-based, human; conditions: 50 µM, 24 h
Description: We used the MTT assay to evaluate the toxicity of the peptides toward human skin epithelial cells (HaCaT) as previously described. Briefly, HaCaT cells were seeded at a density of 2 × 10^4 cells per well in 96-well microtiter plates in Dulbecco’s modified Eagle’s medium (DMEM) containing 10% foetal bovine serum (FBS) at 37 °C under 5% CO2 atmosphere. The next day, peptides were added to each well at various final concentrations (higher concentration of 200 µM). After 24 h incubation, culture supernatants were removed. 0.5 mg/mL MTT was added to each well, and the plates were incubated for 4 h at 37 °C. The medium was replaced by dimethyl sulfoxide (DMSO) to dissolve the formazan crystals formed in the wells. The absorbance at 570 nm was measured using a Versa-Max microplate ELISA reader (Molecular Devices). The viability rate was calculated using the following formula: Cell viability (%) = (absorbance of treated sample)/(absorbance of control) × 100.

Row | Substance | survival rate of HaCaT cells [%]
1 | ILKKLLKGVKSI-NH2 [Hp1404-T1c] | 51

system: P. aeruginosa 27853; assay: not given; type: cell-based, Pseudomonas aeruginosa; conditions: CaCl2 1.25 mM
Description: (§1) We examined the activity of each peptide against both pseudomonas aeruginosa and multidrug-resistant strains. The minimal inhibitory concentrations (MICs) of peptides were determined using the broth micro-dilution assay as described previously. Briefly, bacterial strains were cultivated with shaking overnight at 37 °C. The next day, they were diluted to a density of 2 × 10^5 CFU/mL with growth medium. Peptides were serially diluted with 10 mM sodium phosphate buffer. 50 µL bacterial aliquots were mixed with an equal volume of peptide solution, and incubated at 37 °C for 18–24 h. Inhibition of bacterial growth was determined by measuring the absorbance at 600 nm using a Versa Max microplate reader (Molecular Devices, Sunnyvale, CA, USA). The test was performed in triplicate.
The effects of various cations on the antibacterial activities of the parental and analogue peptides against P. aeruginosa 27853 were evaluated as previously described. Bacteria was treated with peptides at a final concentration 25 µM in the presence of physiological salts such as NaCl (50 mM, 100 mM, and 150 mM), CaCl2 (1.25 mM, 2.5 mM, and 5 mM), or MgCl2 (0.5 mM, 1 mM, and 2 mM). The MIC values were determined as described above.

Row | Substance | MIC [µM]
2 | ILKKLLKGVKSI-NH2 [Hp1404-T1c] | >25

same assay, conditions: CaCl2 2.5 mM

Row | Substance | MIC [µM]
3 | ILKKLLKGVKSI-NH2 [Hp1404-T1c] | >25

same assay, conditions: CaCl2 5 mM

Row | Substance | MIC [µM]
4 | ILKKLLKGVKSI-NH2 [Hp1404-T1c] | >25

same assay, conditions: MgCl2 0.5 mM

Row | Substance | MIC [µM]
5 | ILKKLLKGVKSI-NH2 [Hp1404-T1c] | 12.5

same assay, conditions: MgCl2 1 mM

Row | Substance | MIC [µM]
6 | ILKKLLKGVKSI-NH2 [Hp1404-T1c] | 12.5

same assay, conditions: MgCl2 2 mM

Row | Substance | MIC [µM]
7 | ILKKLLKGVKSI-NH2 [Hp1404-T1c] | >25

same assay, conditions: NaCl 50 mM

Row | Substance | MIC [µM]
8 | ILKKLLKGVKSI-NH2 [Hp1404-T1c] | >25

same assay, conditions: NaCl 100 mM

Row | Substance | MIC [µM]
9 | ILKKLLKGVKSI-NH2 [Hp1404-T1c] | >25

same assay, conditions: NaCl 150 mM

Row | Substance | MIC [µM]
10 | ILKKLLKGVKSI-NH2 [Hp1404-T1c] | >25

system: P. aeruginosa strains (biofilm formation); assay: not given; type: cell-based, Pseudomonas aeruginosa; conditions: P. aeruginosa 434; 24 h, 37 °C, crystal violet OD595
Description: To evaluate the ability of bacterial strains to form biofilms either in the absence or presence of peptides, antibiotic-susceptible P. aeruginosa (ATCC 27853), and various strains of MDR P. aeruginosa were cultured in nutrient broth (NB). […]. The biofilms were fixed with 100% methanol for 15 min, stained with 0.1% crystal violet (CV) for 1 h, and rinsed three times with distilled water (dH2O). After the addition of 95% ethanol, biofilm mass was quantified by measuring OD at 595 nm using a Versa-Max microplate ELISA reader (Molecular Devices). Results were expressed as the percentage of biofilm formed with respect to the control. […] All experiments were performed at least in triplicate.

Row | Substance | MBIC [µM]
11 | ILKKLLKGVKSI-NH2 [Hp1404-T1c] | 50

same assay, conditions: P. aeruginosa 559; 24 h, 37 °C, crystal violet OD595

Row | Substance | MBIC [µM]
12 | ILKKLLKGVKSI-NH2 [Hp1404-T1c] | 25

same assay, conditions: P. aeruginosa 778; 24 h, 37 °C, crystal violet OD595

Row | Substance | MBIC [µM]
13 | ILKKLLKGVKSI-NH2 [Hp1404-T1c] | 25

same assay, conditions: P. aeruginosa 1034; 24 h, 37 °C, crystal violet OD595

Row | Substance | MBIC [µM]
14 | ILKKLLKGVKSI-NH2 [Hp1404-T1c] | 25

same assay, conditions: P. aeruginosa 1162; 24 h, 37 °C, crystal violet OD595

Row | Substance | MBIC [µM]
15 | ILKKLLKGVKSI-NH2 [Hp1404-T1c] | 12.5

same assay, conditions: P. aeruginosa 3399; 24 h, 37 °C, crystal violet OD595

Row | Substance | MBIC [µM]
16 | ILKKLLKGVKSI-NH2 [Hp1404-T1c] | 25

same assay, conditions: P. aeruginosa 3543; 24 h, 37 °C, crystal violet OD595

Row | Substance | MBIC [µM]
17 | ILKKLLKGVKSI-NH2 [Hp1404-T1c] | >50

same assay, conditions: P. aeruginosa 4007; 24 h, 37 °C, crystal violet OD595

Row | Substance | MBIC [µM]
18 | ILKKLLKGVKSI-NH2 [Hp1404-T1c] | >50

same assay, conditions: P. aeruginosa 27853; 5 × 10^5 CFU/mL, 0.2% glucose, 24 h, 37 °C, crystal violet OD595

Row | Substance | MBIC [µM]
19 | ILKKLLKGVKSI-NH2 [Hp1404-T1c] | 25

system: Pseudomonas aeruginosa and MRPA strains; assay: microbe, parasite or virus in culture; type: cell-based; conditions: P. aeruginosa 138 (multidrug-resistant); broth micro-dilution, 37 °C, 18–24 h, triplicate
From the text: Gram-negative (Pseudomonas aeruginosa ATCC 27853) bacterial strains were obtained from the ATCC (American Type Culture Collection; Manassas, VA, USA). Multidrug-resistant strains (Pseudomonas aeruginosa 138, 431, 434, 557, 559, 778, 1034, 1162, 3290, 3399, 3592, 3904, 4007, 4319, 4891, 5018, and 671973) were obtained from the Chonnam National University Hospital (Gwangju, South Korea).
as §1

Row | Substance | MIC [µM]
20 | ILKKLLEGVKSI-NH2 [Hp1404-T1b] | >25
21 | ILKKLLKGVKSI-NH2 [Hp1404-T1c] | 25

same assay, conditions: P. aeruginosa 431 (multidrug-resistant); broth micro-dilution, 37 °C, 18–24 h, triplicate

Row | Substance | MIC [µM]
22 | ILKKLLEGVKSI-NH2 [Hp1404-T1b] | >25
23 | ILKKLLKGVKSI-NH2 [Hp1404-T1c] | 12.5

same assay, conditions: P. aeruginosa 434 (multidrug-resistant); broth micro-dilution, 37 °C, 18–24 h, triplicate

Row | Substance | MIC [µM]
24 | ILKKLLEGVKSI-NH2 [Hp1404-T1b] | 25
25 | ILKKLLKGVKSI-NH2 [Hp1404-T1c] | 6.25

same assay, conditions: P. aeruginosa 557 (multidrug-resistant); broth micro-dilution, 37 °C, 18–24 h, triplicate

Row | Substance | MIC [µM]
26 | ILKKLLEGVKSI-NH2 [Hp1404-T1b] | >25
27 | ILKKLLKGVKSI-NH2 [Hp1404-T1c] | 25

same assay, conditions: P. aeruginosa 559 (multidrug-resistant); broth micro-dilution, 37 °C, 18–24 h, triplicate

Row | Substance | MIC [µM]
28 | ILKKLLEGVKSI-NH2 [Hp1404-T1b] | >25
29 | ILKKLLKGVKSI-NH2 [Hp1404-T1c] | 25

same assay, conditions: P. aeruginosa 778 (multidrug-resistant); broth micro-dilution, 37 °C, 18–24 h, triplicate

Row | Substance | MIC [µM]
30 | ILKKLLEGVKSI-NH2 [Hp1404-T1b] | >25
31 | ILKKLLKGVKSI-NH2 [Hp1404-T1c] | 6.25

same assay, conditions: P. aeruginosa 1034 (multidrug-resistant); broth micro-dilution, 37 °C, 18–24 h, triplicate

Row | Substance | MIC [µM]
32 | ILKKLLEGVKSI-NH2 [Hp1404-T1b] | >25
33 | ILKKLLKGVKSI-NH2 [Hp1404-T1c] | 6.25

same assay, conditions: P. aeruginosa 1162 (multidrug-resistant); broth micro-dilution, 37 °C, 18–24 h, triplicate

Row | Substance | MIC [µM]
34 | ILKKLLEGVKSI-NH2 [Hp1404-T1b] | >25
35 | ILKKLLKGVKSI-NH2 [Hp1404-T1c] | 3.13

same assay, conditions: P. aeruginosa 3290 (multidrug-resistant); broth micro-dilution, 37 °C, 18–24 h, triplicate

Row | Substance | MIC [µM]
36 | ILKKLLEGVKSI-NH2 [Hp1404-T1b] | >25
37 | ILKKLLKGVKSI-NH2 [Hp1404-T1c] | >25

same assay, conditions: P. aeruginosa 3399 (multidrug-resistant); broth micro-dilution, 37 °C, 18–24 h, triplicate

Row | Substance | MIC [µM]
38 | ILKKLLEGVKSI-NH2 [Hp1404-T1b] | >25
39 | ILKKLLKGVKSI-NH2 [Hp1404-T1c] | 3.13

same assay, conditions: P. aeruginosa 3543 (multidrug-resistant); broth micro-dilution, 37 °C, 18–24 h, triplicate

Row | Substance | MIC [µM]
40 | ILKKLLEGVKSI-NH2 [Hp1404-T1b] | >25
41 | ILKKLLKGVKSI-NH2 [Hp1404-T1c] | >25

same assay, conditions: P. aeruginosa 3592 (multidrug-resistant); broth micro-dilution, 37 °C, 18–24 h, triplicate

Row | Substance | MIC [µM]
42 | ILKKLLEGVKSI-NH2 [Hp1404-T1b] | 25
43 | ILKKLLKGVKSI-NH2 [Hp1404-T1c] | 6.25

same assay, conditions: P. aeruginosa 3904 (multidrug-resistant); broth micro-dilution, 37 °C, 18–24 h, triplicate

Row | Substance | MIC [µM]
44 | ILKKLLEGVKSI-NH2 [Hp1404-T1b] | >25
45 | ILKKLLKGVKSI-NH2 [Hp1404-T1c] | 6.25

same assay, conditions: P. aeruginosa 4007 (multidrug-resistant); broth micro-dilution, 37 °C, 18–24 h, triplicate

Row | Substance | MIC [µM]
46 | ILKKLLEGVKSI-NH2 [Hp1404-T1b] | >25
47 | ILKKLLKGVKSI-NH2 [Hp1404-T1c] | 12.5

same assay, conditions: P. aeruginosa 4319 (multidrug-resistant); broth micro-dilution, 37 °C, 18–24 h, triplicate

Row | Substance | MIC [µM]
48 | ILKKLLEGVKSI-NH2 [Hp1404-T1b] | >25
49 | ILKKLLKGVKSI-NH2 [Hp1404-T1c] | 6.25

same assay, conditions: P. aeruginosa 4891 (multidrug-resistant); broth micro-dilution, 37 °C, 18–24 h, triplicate

Row | Substance | MIC [µM]
50 | ILKKLLEGVKSI-NH2 [Hp1404-T1b] | >25
51 | ILKKLLKGVKSI-NH2 [Hp1404-T1c] | 6.25

same assay, conditions: P. aeruginosa 5018 (multidrug-resistant); broth micro-dilution, 37 °C, 18–24 h, triplicate

Row | Substance | MIC [µM]
52 | ILKKLLEGVKSI-NH2 [Hp1404-T1b] | >25
53 | ILKKLLKGVKSI-NH2 [Hp1404-T1c] | 3.13

same assay, conditions: P. aeruginosa 671973 (multidrug-resistant); broth micro-dilution, 37 °C, 18–24 h, triplicate

Row | Substance | MIC [µM]
54 | ILKKLLEGVKSI-NH2 [Hp1404-T1b] | >25
55 | ILKKLLKGVKSI-NH2 [Hp1404-T1c] | 6.25

same assay, conditions: P. aeruginosa ATCC 27853; broth micro-dilution, 2 × 10^5 CFU/mL, 37 °C, 18–24 h, A600, triplicate

Row | Substance | MIC [µM]
56 | ILKKLLEGVKSI-NH2 [Hp1404-T1b] | >25
57 | ILKKLLKGVKSI-NH2 [Hp1404-T1c] | 3.13
